pIC50: −log10 of the molar value.
How the values were obtained:
[1] = test system: Kuramochi cells labeled with mApple-H2B; test: IncuCyte cell proliferation assay; assay type: cell-based; conditions: Kuramochi RB-WT cells, 72 hours, cell count normalized to DMSO
Method: Example A3: IncuCyte® Cell Proliferation Assay
IncuCyte® assay was used to measure the effect of disclosed compounds on cell proliferation. Fluorescent microscopy images of cells were taken immediately after compound treatment and 72 hours later. Image analysis software was used to obtain cell counts as a function of compound concentration. Kuramochi cells labeled with mApple-H2B were seeded on 384-well assay-ready plates. Plates were placed in an IncuCyte® (Sartorius) and scanned at 0 and 72 hours. IncuCyte® software was used to count the number of fluorescent nuclei in each well. The fold change in cell count from 0 to 72 hours in wells treated with increasing compounds concentrations (10 pts, 1/2 log dilution, 20 μM top concentration) was normalized to DMSO control wells. The normalized cell counts were fit with dose response curves and a GI50 was calculated.

[2] = target: T1, CDK2/Cyclin E1 (Homo sapiens, UniProt P24941); test: ADPGLO (CDK2/E1-37C) ADP-Glo Luminescent Kinase Assay; assay type: biochemical; conditions: 0.18 nM CDK2/Cyclin E1, 100 μM ATP, 1.5 μM Histone H1, 37° C., 60 min preincubation
T1 construct: purchased Eurofins 14-475
Method: Example A2: ADPGLO (CDK2/E1-37C)
Inhibition of CDK2/Cyclin E1 activity by the presence of small molecules was evaluated using ADP-Glo Luminescent Kinase Assay (Promega). Activated CDK2/Cyclin E1 was incubated with its substrate Histone H1 (SignalChem H10-54N) in the kinase reaction buffer (100 μM ATP, 50 mM HEPES pH 7.5, 10 mM MgCl2, 1 mM EDTA, 2 mM DTT, 0.01% Brij35, 0.5 mg/mL BSA). Luminescence was recorded with an Envision plate reader (PerkinElmer).
Dose titrations of inhibitors in 100% DMSO were combined with 0.36 nM CDK2/Cyclin E1 in reaction buffer. The mixtures were incubated for 60 minutes at 37° C. before the addition of ATP and Histone H1 substrate to initiate the kinase reaction. The final conditions were 0.18 nM CDK2/Cyclin E1, 100 μM ATP, and 1.5 μM Histone H1. The reactions were incubated at 37° C. for 90 minutes before being stopped with the addition of ADP-Glo reagent. This mixture was incubated at room temperature for 60 minutes before Kinase Detection Solution is added to generate luminescence. The stopped reactions were analyzed on an Envision plate reader. The conversion ratios were normalized to yield % activity, plotted against compound concentration, and fit to a four-parameter equation to determine the IC50 for each compound.

[3] = target: T1, CDK2/Cyclin E1; test: CDK2/Cyclin E1 Caliper LabChip EZ Reader mobility shift assay; assay type: biochemical; conditions: 2.5 nM CDK2/Cyclin E1, 100 μM ATP, 1.5 μM fluorescent peptide, 30 min preincubation; read-out: Caliper Assay (CDK2/CCNE1): IC50
Method: Example A1: CDK2/Cyclin E1 Caliper Assay
Inhibition of CDK2/Cyclin E1 activity in the presence of compounds of the present disclosure was evaluated using a Caliper LabChip® EZ Reader mobility shift assay. In the assay, CDK2/Cyclin E1 (Eurofins, 14-475) catalyzed the phosphorylation of a fluorescently tagged peptide 5-FAM-QSPKKG-CONH2 (PerkinElmer, FL Peptide 18) which induced a difference in capillary electrophoresis mobility. The peptide substrate and product were measured, and the conversion ratio was used to determine the inhibition (as % activity and IC50 values) of CDK2/Cyclin E1. Reactions contained 50 mM HEPES pH 7.5, 10 mM MgCl2, 1 mM EDTA, 2 mM DTT, 0.01% Brij35, 0.5 mg/mL BSA, 0.1% DMSO, 2.5 nM CDK2/Cyclin E1, 100 μM ATP, and 1.5 μM fluorescent peptide substrate.
Dose titrations of inhibitors in 100% DMSO were combined with 3.25 nM CDK2/Cyclin E1 and 130 μM of ATP in reaction buffer. The mixtures were incubated for 30 minutes before the addition of fluorescent peptide substrate to initiate the kinase reaction. The final conditions were 2.5 nM CDK2/Cyclin E1, 100 μM ATP, and 1.5 μM fluorescent peptide. The reactions were stopped after 100 minutes with the addition of EDTA (400 mM final EDTA concentration). The stopped reactions were analyzed on a Caliper LabChip® EZ Reader II. The conversion ratios were normalized to yield % activity, plotted against compound concentration, and fit to a four-parameter equation to determine the IC50 for each compound.

pIC50 [2] | pIC50 [3] | SMILES | pIC50 [1]
≥ 6.30 | – | C[C@@H](OCC1CCCCC1)[C@H](NC(=O)[C@@H]1CN(Cc2cnn(Cc3ccccc3)c2)C(=O)C12CN(C(=O)[C@H]1CC1(C)C)C2)C(=O)N1CCC(c2nccs2)CC1 [Compound I-5, (S)-6-((1-benzyl-1H-pyrazol-4-yl)methyl)-N-((2S,3R)-3-(cyclohexylmethoxy)-1-oxo-1-(4-(thiazol-2-yl)piperidin-1-yl)butan-2-yl)-2-((S)-2,2-dimethylcyclopropane-1-carbonyl)-5-oxo-2,6-diazaspiro[3.4]octane-8-carboxamide] | ≥ 6.30
≥ 6.30 | – | C[C@@H](OCC1CCCCC1)[C@H](NC(=O)C1CN(C(=O)c2cncs2)CC12CCN(C(=O)[C@H]1CC1(C)C)CC2)C(=O)N1CCC(c2ccc(C(=O)O)cc2)CC1 (stereo partly drawn) [Compound I-41, 4-(1-(O-(cyclohexylmethyl)-N-(8-((S)-2,2-dimethylcyclopropane-1-carbonyl)-2-(thiazole-5-carbonyl)-2,8-diazaspiro[4.5]decane-4-carbonyl)-L-threonyl)piperidin-4-yl)benzoic acid] | < 4.70
< 5.00 | – | C[C@@H](OCC1CCCCC1)[C@H](NC(=O)[C@@H]1CN(C(=O)c2cncs2)CC12CCOCC2)C(=O)N1CCC(c2ccc(C(=O)O)cc2)CC1 (single isomer, unassigned) [I-4 2nd, 4-(1-(O-(cyclohexylmethyl)-N-(2-(thiazole-5-carbonyl)-8-oxa-2-azaspiro[4.5]decane-4-carbonyl)-L-threonyl)piperidin-4-yl)benzoic acid] | < 4.70
< 4.00 | < 5.00 | CC1(C)C[C@@H]1C(=O)N1CC2(C1)C(=O)N(Cc1cncs1)CC2c1nnc(C(F)(F)c2ccc(Cl)c(Cl)c2)o1 (stereo partly drawn) [Compound I-6, 8-(5-((3,4-dichlorophenyl)difluoromethyl)-1,3,4-oxadiazol-2-yl)-2-((S)-2,2-dimethylcyclopropane-1-carbonyl)-6-(thiazol-5-ylmethyl)-2,6-diazaspiro[3.4]octan-5-one] | < 4.70
– | < 5.00 | C[C@@H](OCC1CCCCC1)C(NC(=O)[C@@H]1CCOC12CN(C(=O)[C@H]1CC1(C)C)C2)C(=O)N1CCCCC1 (single isomer, unassigned) [I-29 1st] | < 4.70
– | < 5.00 | Cc1ccc(CNC(=O)[C@@H]2CN(C(=O)c3cnn(Cc4ccccc4)c3)CC23CN(C(=O)[C@H]2CC2(C)C)C3)nn1 [Compound I-20] | < 4.70
– | 6.00 to 7.00 | COC[C@H]1CCCN(C(=O)[C@@H](NC(=O)[C@H]2CN(C(=O)c3cncs3)CC23CN(C(=O)[C@H]2CC2(C)C)C3)[C@@H](C)OCC2CCCCC2)C1 [Compound I-21] | 4.70 to 5.30
– | < 5.00 | C[C@@H](OCC1CCCCC1)[C@H](NC(=O)C1CSCC12CN(C(=O)[C@H]1CC1(C)C)C2)C(=O)N1CCCCC1 (stereo partly drawn) [Compound I-23, N-((2S,3R)-3-(cyclohexylmethoxy)-1-oxo-1-(piperidin-1-yl)butan-2-yl)-2-((S)-2,2-dimethylcyclopropane-1-carbonyl)-6-thia-2-azaspiro[3.4]octane-8-carboxamide] | < 4.70
– | 5.00 to 6.00 | CC(=O)N[C@@H](C(=O)NC1CN(C(=O)c2cncs2)CC12CN(C(=O)[C@H]1CC1(C)C)C2)[C@H](C)OCC1CCCCC1 (stereo partly drawn) [Compound I-24, (2R,3S)-2-acetamido-3-(cyclohexylmethoxy)-N-(2-((S)-2,2-dimethylcyclopropane-1-carbonyl)-6-(thiazole-5-carbonyl)-2,6-diazaspiro[3.4]octan-8-yl)butanamide] | < 4.70
– | < 5.00 | C[C@@H](OCC1CCCCC1)[C@H](NC(=O)[C@@H]1CNCC12CN(C(=O)[C@H]1CC1(C)C)C2)C(=O)N1CCCCC1 [Compound I-37, (S)—N-((2S,3R)-3-(cyclohexylmethoxy)-1-oxo-1-(piperidin-1-yl)butan-2-yl)-2-((S)-2,2-dimethylcyclopropane-1-carbonyl)-2,6-diazaspiro[3.4]octane-8-carboxamide] | < 4.70
– | < 5.00 | C[C@@H](OCC1CCCCC1)[C@H](NC(=O)[C@@H]1CCOC12CN(C(=O)[C@H]1CC1(C)C)C2)C(=O)N1CCC[C@H](N)C1 (single isomer, unassigned) [I-31 1st] | < 4.70
– | < 5.00 | C[C@@H](OCC1CCCCC1)[C@H](NC(=O)[C@@H]1CCOC12CN(C(=O)[C@H]1CC1(C)C)C2)C(=O)N1CCC[C@@H](N)C1 (single isomer, unassigned) [I-34 1st] | < 4.70
– | < 5.00 | CC(=O)N1CC(c2nnc(C(F)(F)c3ccc(Cl)c(Cl)c3)o2)C2(CCOCC2)C1 (centres unmarked) [Compound I-7] | < 4.70
– | < 5.00 | C[C@@H](OCC1CCCCC1)[C@H](NC(=O)[C@H]1CCOC12CN(C(=O)[C@H]1CC1(C)C)C2)C(=O)N1CCC[C@@H](N)C1 (single isomer, unassigned) [I-34 2nd] | < 4.70
< 5.00 | – | C[C@@H](OCC1CCCCC1)[C@H](NC(=O)[C@H]1CN(C(=O)c2cncs2)CC12CCOCC2)C(=O)N1CCC(c2ccc(C(=O)O)cc2)CC1 (single isomer, unassigned) [I-4 1st, 4-(1-(O-(cyclohexylmethyl)-N-(2-(thiazole-5-carbonyl)-8-oxa-2-azaspiro[4.5]decane-4-carbonyl)-L-threonyl)piperidin-4-yl)benzoic acid] | < 4.70
– | < 5.00 | C[C@@H](OCC1CCCCC1)[C@H](NC(=O)[C@@H]1CNCC12CN(C(=O)[C@H]1CC1(C)C)C2)C(=O)N1CCOCC1 [Compound I-32, (S)—N-((2S,3R)-3-(cyclohexylmethoxy)-1-morpholino-1-oxobutan-2-yl)-2-((S)-2,2-dimethylcyclopropane-1-carbonyl)-2,6-diazaspiro[3.4]octane-8-carboxamide] | < 4.70
– | 5.00 to 6.00 | C[C@@H](OCC1CCCCC1)[C@H](NC(=O)[C@@H]1CN(C(=O)OC(C)(C)C)CC12CN(C(=O)[C@H]1CC1(C)C)C2)C(=O)N1CCOCC1 [Compound I-33] | < 4.70
